Experimental data reported in article PMC8994274, “A proteolysis-targeting chimera molecule selectively degrades ENL and inhibits malignant gene expression and tumor growth” (Journal of Hematology & Oncology, 2022).
Where two headings read alike, the source gives them in different places.

What was measured:
ENL YEATS = biological target: T1, ENL YEATS (Homo sapiens, UniProt Q03111)
T1 sequence (Q03111 1-138): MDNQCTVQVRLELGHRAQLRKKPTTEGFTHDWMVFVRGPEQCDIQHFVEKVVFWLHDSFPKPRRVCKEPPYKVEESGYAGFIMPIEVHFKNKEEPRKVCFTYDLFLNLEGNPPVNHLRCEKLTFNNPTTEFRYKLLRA
Excerpt: cDNA for human ENL YEATS domain (1–138) was synthesized (by Genscript) and cloned into pET-28a vector.
(§2) AlphaScreen binding assay was developed using Perkin-Elmer AlphaScreen Histidine (Nickel Chelate) Detection Kit, following a reported protocol [39]. Data were imported into Prism (version 5.0), and IC50 values from 3 independent experiments with standard deviation were obtained by using a standard dose–response curve fitting.

AF9 YEATS = biological target: T2, AF9 YEATS (Homo sapiens, UniProt P42568); assay: ALPHA assay, inhibition of the AF9 YEATS-H3K27ac interaction
T2 sequence (P42568 1-138 limits assumed): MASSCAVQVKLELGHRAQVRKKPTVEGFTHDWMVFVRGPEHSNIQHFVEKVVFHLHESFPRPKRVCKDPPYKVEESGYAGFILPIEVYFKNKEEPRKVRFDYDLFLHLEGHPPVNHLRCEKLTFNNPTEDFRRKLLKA
Excerpt: as §2

Panc1 cells = assay: Antiproliferation assay, Panc1; conditions: Homo sapiens, PANC-1, 168 h, read-out: Antiproliferative activity, EC50, Panc1
RPMI-8226 cells = assay: Antiproliferation assay (XTT), RPMI-8226; conditions: Homo sapiens, RPMI-8226, 168 h, read-out: Antiproliferative activity, EC50, RPMI-8226
Procedure: (§3) Proliferation inhibition assays for suspension blood cancer cells were performed using an XTT assay kit (Biotium), following our previous methods [22]. EC50 values were determined using Prism 5 and from at least three independent experiments.

MV4;11 cells = assay: Antiproliferation assay (XTT), MV4;11; conditions: Homo sapiens, MV4-11, 168 h, read-out: Antiproliferative activity, EC50, MV4;11
Procedure: as §3

Molm-13 cells = assay: Antiproliferation assay (XTT), Molm-13; conditions: for EC50: Homo sapiens, MOLM-13, 168 h, read-out: Antiproliferative activity, EC50, Molm13
Procedure: as §3

U266 cells = assay: Antiproliferation assay (XTT), U266; conditions: Homo sapiens, U-266, 168 h, read-out: Antiproliferative activity, EC50, U266
Procedure: as §3

Kasumi-1 cells = assay: Antiproliferation assay (XTT), Kasumi-1; conditions: Homo sapiens, Kasumi 1, 168 h, read-out: Antiproliferative activity, EC50, Kasumi-1
Procedure: as §3

Hela cells = assay: Antiproliferation assay, Hela; conditions: Homo sapiens, read-out: Antiproliferative activity, EC50, Hela
ENL [1] = biological target: T3, ENL (Homo sapiens, UniProt Q03111); assay: ENL degradation in MV4;11 cells (Western blot); type: cell-based; parameters: endogenous in cells; host or cells: MV4;11; conditions: for Dmax: MV4-11, MV4;11 cells, read-out: Dmax (maximal degradation) of ENL; for Dmax / DC50: 24 h; for DC50: read-out: DC50 (concentration at which a protein is reduced by 50%) of ENL
T3 sequence (Q03111 1-559): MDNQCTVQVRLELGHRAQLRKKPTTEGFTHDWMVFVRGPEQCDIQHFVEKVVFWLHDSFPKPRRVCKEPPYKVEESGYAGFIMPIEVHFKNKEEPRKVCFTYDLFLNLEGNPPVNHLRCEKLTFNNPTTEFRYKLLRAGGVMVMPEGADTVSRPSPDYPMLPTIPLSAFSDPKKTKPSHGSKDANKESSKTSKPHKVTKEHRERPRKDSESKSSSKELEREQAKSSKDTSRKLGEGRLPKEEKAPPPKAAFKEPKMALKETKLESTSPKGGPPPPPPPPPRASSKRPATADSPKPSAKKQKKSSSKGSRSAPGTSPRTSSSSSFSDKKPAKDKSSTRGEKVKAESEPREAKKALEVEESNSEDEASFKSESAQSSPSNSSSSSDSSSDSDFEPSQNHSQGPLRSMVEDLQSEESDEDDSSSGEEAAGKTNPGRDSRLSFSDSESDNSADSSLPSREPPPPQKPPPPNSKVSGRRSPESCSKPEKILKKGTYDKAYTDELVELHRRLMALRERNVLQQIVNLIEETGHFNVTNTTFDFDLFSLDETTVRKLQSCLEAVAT
Procedure: We next tested whether these compounds degrade ENL and AF9 in MV4;11 leukemia cells with the MLL1-AF4 oncogene. Upon compound treatment for 24 h, the cells were washed, lysed, and the lysates subjected to SDS-PAGE (sodium dodecyl sulfate–polyacrylamide gel electrophoresis) followed by detection with Western blot.
3 × 10^6 cells/well were treated with increasing concentrations of a compound for 1 day, and whole proteins were extracted. Equal amounts of proteins were separated on SDS-PAGE and transferred to PVDF membranes. The blots were probed with primary antibodies, followed by anti-rabbit IgG (Thermo Scientific) secondary antibodies. The primary antibodies against ENL (Cell signaling #14893), AF9 (Novusbio #NB100-1565), DOT1L (Cell signaling #77087), AFF4 (Abcam #ab103586), Cyclin T1 (Cell signaling #81464), H3K79me2 (Cell signaling #5427), H3K79me1 (Cell signaling #9398), Histone H3 (Cell signaling #4499), FLAG (Sigma-Aldrich #F1804), β-Actin (Cell signaling #4970) were used in this study.

[2] = tested on: blood and solid tumor cells; assay: Antiproliferation assay, ranges given over several cell lines; type: cell-based
Procedure: as §3

ENL [3] = biological target: T3, ENL; assay: ENL in nucleus and cytoplasm of MV4;11 cells (Western blot); type: cell-based; parameters: endogenous in cells; host or cells: MV4;11; conditions: 4 days, compound 1 at 500 nM
Procedure: Upon treatment of MV4;11 cells with these compounds for 4 days, cytoplasmic and nuclear proteins were separated and subjected to SDS-PAGE/Western blot.
(§1) 3 × 10^6 cells/well were treated with increasing concentrations of a compound for 1 day, and whole proteins were extracted. Equal amounts of proteins were separated on SDS-PAGE and transferred to PVDF membranes. The blots were probed with primary antibodies, followed by anti-rabbit IgG (Thermo Scientific) secondary antibodies.

ENL [4] = biological target: T3, ENL; assay: Rescue of compound 1-mediated ENL degradation in MV4;11 cells; type: cell-based; parameters: endogenous in cells; host or cells: MV4;11; conditions: 2 h pre-treatment, then co-treatment with 1 (500 nM) for 24 h
Procedure: as §1

SMILES	IC50 (ENL YEATS)	IC50 (AF9 YEATS)	EC50 (Panc1 cells)	EC50 (RPMI-8226 cells)	EC50 (MV4;11 cells)	EC50 (Molm-13 cells)	EC50 (U266 cells)	EC50 (Hela cells; 168 h)	Dmax (ENL [1])	DC50 (ENL [1]; MV4;11 cells)	EC50 (Hela cells; 72 h)	EC50 ([2]; non-selective activities, read-out: EC50 for blood and solid tumor cells (range over cell lines))	ENL reduction (ENL [1]; MV4;11 cells, even at 5 μM)	EC50 (Kasumi-1 cells)	Cytotoxic action over time ([2]; cancerous cells)	Antiproliferative activity, EC50, Molm13 (Molm-13 cells; 7-day incubation)	ENL level in the nucleus (ENL [3])	Effect on compound 1-mediated ENL degradation (ENL [4])
C[C@H]1CCCN1Cc1nc2cc(NC(=O)c3ccc4c(cnn4CCCCCCNc4cccc5c4C(=O)N(C4CCC(=O)NC4=O)C5=O)c3)ccc2[nH]1 (stereo partly shown) [Compound 2]	0.1 µM	0.317 ± 0.058 µM	> 50 µM	6 ± 0.9 µM	1.6 ± 0.01 µM	0.49 ± 0.43 µM	17 µM	> 50 µM	~68%	~0.05 µM				19 ± 3.4 µM				
C[C@H]1CCCN1Cc1nc2cc(NC(=O)c3ccc4c(cnn4C)c3)ccc2[nH]1 [SGC-iMLLT, reference compound]		0.011 ± 0.0006 µM	> 50 µM	> 50 µM	> 50 µM	17 ± 1.1 µM	> 50 µM	> 50 µM						> 50 µM		weak activity	no reduction or even an increase	dose-dependently inhibit 1-mediated ENL degradation
CC(C)C[C@H](NC(=O)[C@H](Cc1ccccc1)NC(=O)c1cnccn1)B(O)O [bortezomib]																		dose-dependently inhibit 1-mediated ENL degradation

More lines, main results first:

IC50 (ENL YEATS)	IC50 (AF9 YEATS)	EC50 (Panc1 cells)	EC50 (RPMI-8226 cells)	EC50 (MV4;11 cells)	EC50 (Molm-13 cells)	EC50 (U266 cells)	EC50 (Hela cells; 168 h)	Dmax (ENL [1])	DC50 (ENL [1]; MV4;11 cells)	EC50 (Hela cells; 72 h)	EC50 ([2]; non-selective activities, read-out: EC50 for blood and solid tumor cells (range over cell lines))	ENL reduction (ENL [1]; MV4;11 cells, even at 5 μM)	SMILES	EC50 (Kasumi-1 cells)	Cytotoxic action over time ([2]; cancerous cells)	Antiproliferative activity, EC50, Molm13 (Molm-13 cells; 7-day incubation)	ENL level in the nucleus (ENL [3])	Effect on compound 1-mediated ENL degradation (ENL [4])
0.61 µM	0.058 ± 0.02 µM	> 50 µM	19 ± 3.8 µM	1.2 ± 0.05 µM	2.1 ± 0.03 µM	2.9 ± 1.8 µM	> 50 µM	89%	0.072 µM				C[C@H]1CCCN1Cc1nc2cc(NC(=O)c3ccc4c(cnn4CCCCNc4cccc5c4C(=O)N(C4CCC(=O)NC4=O)C5=O)c3)ccc2[nH]1 (stereo partly shown) [Compound 3]	50 µM				
			1.4 ± 0.46 µM		0.98 ± 0.04 µM					3.8 ± 1.2 µM	1 to 3.8 µM	did not reduce ENL	C[C@H]1CCCN1Cc1nc2cc(NC(=O)c3ccc4c(cnn4CCCCNC(=O)CC45CC6CC(CC(C6)C4)C5)c3)ccc2[nH]1 [Compound 4]		killing cancerous cells non-selectively within 3 days			
		> 50 µM	> 50 µM	> 50 µM	> 50 µM	> 50 µM	> 50 µM						O=C1CCC(N2C(=O)c3ccccc3C2=O)C(=O)N1 (stereo not shown) [thalidomide, reference compound]	> 50 µM			did not reduce	dose-dependently inhibit 1-mediated ENL degradation
